Measurements as given in patent publication US20240131178A1, “ANTIBODY-DRUG CONJUGATE INCLUDING ANTIBODY AGAINST HUMAN CLDN18.2, AND USE THEREOF” (LEGOCHEM BIOSCIENCES, INC., priority 2021, published 2024).
Square brackets hold non-standard residues; d marks the D form. Peptide text beside a SMILES is read from it. * marks the point of attachment. Dolaproine = CO[C@@H]([C@@H]1CCCN1)[C@@H](C)C(=O)O; Dil = CC[C@H](C)[C@H](NC)[C@@H](CC(=O)O)OC; X1 = C[C@@H](N*)[C@@H](O)c1ccccc1; NMeV = CN[C@H](C(=O)O)C(C)C

Columns and labels:
Format in all cases: cell-based
Details in all cases: 144 hours, SRB dye
[1] = test system: gastric cancer cell line SNU-601; test: In vitro cytotoxicity (cell proliferation inhibition), SNU-601
Experimental: (§1) The cell proliferation inhibitory activity of drugs shown in Table 4 and the ADCs was measured. Gastric cancer cell lines NUGC-4, SNU-601, and SNU-602, and a pancreatic cancer cell line PATU-8988s, which are commercially available as cancer cell lines, were used, and normal cell lines HaCaT, Fa2N-4, HK-2, and HS738.st/Int were used. As for test groups treated with each cancer cell line for 144 hours, cells were seeded into a 96-well plate at the rate of 2,500 cells/well to 10,000 cells/well and cultured for 24 hours, and then each cancer cell line was treated with each drug and each ADC at a concentration of 0.256 pM to 100 nM (5-fold serial diltuion), and each normal cell line was treated with each drug and each ADC at a concentration of 2.56 pM to 1,000 nM (5-fold serial dilution). The number of cells survived after 144 hours was quantified using a sulforhodamine B (SRB) dye, and the cell line Hs738.st/Int was quantified using Cell titer glo.

[2] = test system: gastric cancer cell line SNU-620; test: In vitro cytotoxicity (cell proliferation inhibition), SNU-620
normal cell line HK-2 = test: In vitro cytotoxicity, normal cell line HK-2
Experimental: as §1

[3] = test system: pancreatic cancer cell line PATU-8988s; test: In vitro cytotoxicity (cell proliferation inhibition), PATU-8988s
Experimental: as §1

normal cell line Fa2N-4 = test: In vitro cytotoxicity, normal cell line Fa2N-4
Experimental: as §1

[4] = test system: gastric cancer cell line NUGC-4; test: In vitro cytotoxicity (cell proliferation inhibition), NUGC-4
Experimental: as §1

normal cell line HaCaT = test: In vitro cytotoxicity, normal cell line HaCaT
Experimental: as §1

Compound | IC50 [1] [nM] | IC50 [2] [nM] | IC50 (normal cell line HK-2) [nM] | IC50 [3] [nM] | IC50 (normal cell line Fa2N-4) [nM] | IC50 [4] [nM] | IC50 (normal cell line HaCaT) [nM]
CC[C@H](C)[C@@H]([C@@H](CC(=O)N1CCC[C@H]1[C@H](OC)[C@@H](C)C(=O)N[C@H](C)[C@@H](O)c1ccccc1)OC)N(C)C(=O)[C@@H](NC(=O)[C@@H](NC)C(C)C)C(C)C [MMAE, monomethyl auristatin E] (H-[NMeV]V[Dil][Dolaproine]-X1) | 0.51 | 0.71 | 21.9 | 0.145 | 3 | 0.29 | 0.14
C=C1C[C@H]2C=Nc3cc(OCCCCCOc4cc5c(cc4OC)C(=O)N4CC(=C)C[C@H]4C=N5)c(OC)cc3C(=O)N2C1 [SG2057] | 0.003 | 0.097 | – | – | – | 0.03 | –
